Earlier results in patent publication US20240352056A1, “Improved methods for production of cyclic guanosine-monophosphate analogues” (Mireca Medicines GmbH, priority 2021, published 2024).

How the values were obtained:
[1] = test system: cGMP-dependent protein kinase
[2] = test system: cAMP-dependent protein kinase
[3] = test system: rd1 and rd2 photoreceptors; details: rd1 and rd2 mouse retinitis pigmentosa models, in vitro and in vivo

Compound | antagonism of the activation of the cGMP-dependent protein kinase [1] | binding to cGMP-dependent protein kinase and stimulation of its phosphotransferase activity [1] | antagonism / inhibition of cAMP-dependent protein kinase [2] | further results
O=c1c2nc(Br)n([C@@H]3O[C@@H]4CO[P@@](O)(=S)O[C@H]4[C@H]3O)c2nc2[nH]c(-c3ccccc3)cn12 [1a, Triethylammonium Rp-8-Bromo-β-phenyl-1,N2-ethenoguanosine-3′, 5′-cyclic monophosphorothioate] |  |  |  | neuroprotective effects in vivo (photoreceptors): potent neuroprotective effects in vivo; activity towards PKG (agonist or antagonist) (PKG): antagonistic activity towards PKG
Nc1nc2c(nc(Cl)n2[C@@H]2O[C@@H]3CO[P@@](O)(=S)O[C@H]3[C@H]2O)c(=O)[nH]1 [(Rp)-8-Cl-cGMPS, 8-chloroguanosine 3′, 5′-monophosphorothioate] | antagonized the activation of the cGMP-dependent protein kinase | bound to the enzyme without stimulation of its activity | weak inhibitor | selectivity for cGMP-dependent over cAMP-dependent protein kinase [1]: rather selective inhibitor of the cGMP-dependent protein kinase
Nc1nc2c(ncn2[C@@H]2O[C@@H]3COP(O)(=S)O[C@H]3[C@H]2O)c(=O)[nH]1 (stereo partly drawn) [(Rp)-cGMPS, guanosine 3′, 5′-monophosphorothioate] | antagonized the activation of the cGMP-dependent protein kinase | bound to the enzyme without stimulation of its activity | antagonized the activation of cAMP-dependent protein kinase | 
Nc1nc2c(nc(Cl)n2[C@@H]2O[C@@H]3CO[P@@](O)(=S)O[C@H]3[C@H]2O)c(=O)[nH]1 [(Sp)-8-Cl-cGMPS, 8-chloroguanosine 3′, 5′-monophosphorothioate] |  | stimulated its phosphotransferase activity |  | 
Nc1nc2c(ncn2[C@@H]2O[C@@H]3COP(O)(=S)O[C@H]3[C@H]2O)c(=O)[nH]1 (stereo partly drawn) [(Sp)-cGMPS, guanosine 3′, 5′-monophosphorothioate] |  | stimulated its phosphotransferase activity |  | 
Nc1nc2c(nc(Br)n2[C@@H]2O[C@@H]3COP(O)(=S)O[C@H]3[C@H]2O)c(=O)[nH]1 (stereo partly drawn) [Rp-8-Br-cGMPS] |  |  |  | protection of photoreceptors [3]: protection of rd1 and rd2 photoreceptors
